Reference: patent publication US20150111852A1, “1-Di(sec-butyl)-phosphinoyl-pentane (dapa-2-5) as a topical agent” (priority 2013, published 2015)

What was measured:
[1] = molecular target: T1, cloned hTRPM8 channel (encoded by the human TRPM8 gene, expressed in CHO cells) (Homo sapiens, UniProt Q7Z2W7); experiment: TRPM8 agonist FLIPR Fluo-8 calcium assay; type: cell-based; conditions: for EC50: CHO cells, Fluo-8, n=4 replicates
T1 construct: host or cells: CHO cells, stably transfected
Protocol: The in vitro effects of test compounds were evaluated on cloned hTRPM8 channel (encoded by the human TRPM8 gene, expressed in CHO cells) using a Fluo-8 calcium kit and a Fluorescence Imaging Plate Reader (FLIPR^TETRA™) instrument.
Test compounds and positive control solutions were prepared by diluting stock solutions in a HEPES-buffered physiological saline (HBPS) solution. The test compound and control formulations were loaded in polypropylene or glass-lined 384-well plates, and placed into the FLIPR instrument (Molecular Devices Corporation, Union City, Calif., USA). The test compounds were evaluated at 4 or 8 concentrations with n=4 replicates per determination. […] The test cells were Chinese Hamster Ovary (CHO) cells stably transfected with human TRPM8 cDNAs.
For the FLIPR^TETRA™ assay, cells were plated in 384-well black wall, flat clear-bottom microtiter plates (Type: BD Biocoat Poly-D-Lysine Multiwell Cell Culture Plate) at approximately 30,000 cells per well. Cells were incubated at 37° C. overnight to reach a near confluent monolayer appropriate for use in a fluorescence assay. The test procedure was to remove the growth media and to add 40 μL of HBPS containing Fluo-8 for 30 min at 37° C. 10 μL of test compound, vehicle, or control solutions in HBPS were added to each well and read for 4 min.
Concentration-response data were analyzed via the FLIPR Control software that is supplied with the FLIPR System (MDS-AT) and fitted to a Hill equation of the following form: […]
where: “Base” is the response at low concentrations of test compound; “Max” is the maximum response at high concentrations; “xhalf” is the EC50, the concentration of test compound producing half-maximal activation; and “rate” is the Hill coefficient. Nonlinear least squares fits were made assuming a simple one-to-one binding model.

[2] = system: oropharynx; experiment: Sensory effects and cold discomfort of compounds given orally in ODT (general evaluation); type: in vivo, human; conditions: menthol at a dose of 2 mg in an ODT; icilin dose not given
Protocol: The correlation between a chemical's potency at the TRPM8 receptor (measured by the EC50 μM) and potency to evoke sensory events in the oropharynx is complex.
When a test compound is applied to non-keratinizng bodily surfaces (e.g., oropharyngeal surface), it is possible to characterize the resulting sensations.
The sensations are akin to rapid drinking of cold water mixed and equilibrated with ice chips. The intense cold is further accentuated if the drink is acidified, for example, with lemonade. The sensations of dull and intense cold on the surface of the oropharynx can be described as painful, uncomfortable, and aversive. The term “icy cold” is used to describe these adverse intense cold sensations.
Together, these three types of sensations—“icy cold”, coldness in the chest, and systemic coldness—is termed “cold discomfort”. […] The ideal agent must have a circumscribed site of action, and the intensity of the sensation should not cause “icy cold”, coldness in the chest, or systemic chills.

[3] = molecular target: T2, ASIC3 (acid-sensing) (Homo sapiens, UniProt Q9UHC3); experiment: Patch-clamp in transfected cells, ASIC3; type: cell-based; conditions: DAPA-2-5 at 5 μM; positive control amiloride
T2 construct: expressed in transfected cells
T2 sequence (Q9UHC3 1-531): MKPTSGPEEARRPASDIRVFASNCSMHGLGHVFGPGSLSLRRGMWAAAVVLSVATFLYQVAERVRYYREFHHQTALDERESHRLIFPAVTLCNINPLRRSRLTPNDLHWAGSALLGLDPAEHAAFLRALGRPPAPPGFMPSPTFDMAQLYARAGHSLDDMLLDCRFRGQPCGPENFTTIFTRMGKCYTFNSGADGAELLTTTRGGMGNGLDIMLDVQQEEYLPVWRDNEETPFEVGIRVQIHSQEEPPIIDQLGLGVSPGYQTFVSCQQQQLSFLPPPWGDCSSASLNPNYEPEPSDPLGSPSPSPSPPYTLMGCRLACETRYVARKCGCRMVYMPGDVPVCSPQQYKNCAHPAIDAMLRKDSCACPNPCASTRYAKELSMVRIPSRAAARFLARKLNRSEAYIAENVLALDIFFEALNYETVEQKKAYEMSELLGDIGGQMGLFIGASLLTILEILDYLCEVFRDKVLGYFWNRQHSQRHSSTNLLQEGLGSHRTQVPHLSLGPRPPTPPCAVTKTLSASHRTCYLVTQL

[4] = system: dorsal surface of the tongue; conditions: 6 subjects, filter paper 1×1 cm, 30 sec; cited from earlier work
[5] = system: oral cavity and pharyngeal surfaces; experiment: Sensory activity of ODT-A on volunteers; type: in vivo, human; conditions: 6 to 8 trials per compound
Protocol: ODT-A was prepared by dissolving the DAPA compound in absolute ethanol, adding a 80% mannitol-20% maltitol mixture of equal weight and then adding an equal volume of distilled water. The mixture was the stirred with a glass rod, and dispensed onto a piece of wax or parchment paper with a disposable plastic pipette. The viscous liquid drop formed was then dried under a heat source for at least 4 hr. The nominal dose of the API in ODT-A ranged from 1 to 3 mg/tablet. The dried tablets weighed on average 150 mg each and when on the dorsal surface of the tongue, rapidly dissolved completely in saliva and coated the oropharyngeal surface. These tablets were suitable for initial pilot studies, but were not uniform in size, were friable, especially in conditions of high ambient humidity, and were not readily amenable to further analytical evaluation.
Sensory Qualities of ODT on the Oral Cavity and Pharyngeal Surfaces The DAPA ODT of Study 2 were evaluated for sensory properties on volunteers. The ODT-A results [see table] are from 6 to 8 trials per compound in several experienced individuals familiar with sensory properties of “cooling agents”. The results of ODT-A will be discussed together with ODT-B and ODT-C.

[6] = system: throat; experiment: Cold water test after ODT-A (cold discomfort); type: in vivo, human; set-up: key: If the subject felt “normal coolness” in the throat, the value was “0”; if the water felt “excessively cold” on the throat, it was rated as “+”; if there was “aching cold/discomfort” on the throat, the ranking was “++”; conditions: ODT-A on the tongue, ice water drunk 10 min later
Protocol: After application of ODT-A there were sensations associated with heat abstraction of various intensity and duration. Of particular note was the sensation of “icy or painful” cold was felt with some compounds, but the effect was variable. To isolate this sensation more precisely and reduce variability, ODT-A was placed on the tongue and 10 min later the subject was instructed to drink a mouthful of water previously equilibrated with ice chips. If the subject felt “normal coolness” in the throat, the value was “0”; if the water felt “excessively cold” on the throat, it was rated as “+”; and if there was “aching cold/discomfort” on the throat, the ranking was “++”. The term “cold discomfort” was applied compounds that produced “++”, and this phenomenon could now be reliably defined and identified with the cold water test.

[7] = system: oropharynx; experiment: Chili-pepper sauce irritation test; type: in vivo, human; set-up: key: If there was no suppression of the irritant/tickling sensations of the sauce, the value was “0”; if there was some suppression, the value was “+”; if there was complete suppression, then the value was “++.”; conditions: ODT, sauce applied 30 min later; 6 to 8 trials per compound
Excerpt: The “pain” component of inflammation includes irritation, itch, and discomfort and suppression of these endpoints is termed “anti-nociceptive”. To determine if a compound has anti-nociceptive activity, the Inventor has devised a modified capsaicin challenge method to evoke discomfort in the oropharyngx: the chili-pepper sauce irritation test. Chili-pepper sauce placed onto the posterior dorsal surface of the tongue evokes a tickling/irritant sensations in the oropharynx. The sensations associated with the chili pepper sauce are located in the back of the mouth and are clearly recognized and associated with irritation and a desire to clear the throat. In the chili-pepper sauce irritation test, the test compound is delivered using an ODT, as in Study 3, and 30 min later 0.2 to 0.25 mL of the sauce was applied onto the posterior dorsal surface of the tongue (with a syringe or a plastic stick). The chili pepper sauce used here is called Yank Sing® Chili Pepper Sauce (YS Gourmet Productions, Inc., PO Box 26189, San Francisco, Calif. 94126) and is a well-known condiment for use with dim sum (Chinese tea lunch). If there was no suppression of the irritant/tickling sensations of the sauce, the value was “0”; if there was some suppression, the value was “+”; and if there was complete suppression, then the value was “++.” For compounds that gave a ++ score, the irritative signals of the chili-pepper sauce are completely absent, yet the salty taste from the soy sauce of the condiment can still be readily tasted. A “++” result indicated suppression of the irritant effects of chili-pepper sauce. Numerical results are from 6 to 8 trials per compound.

[8] = system: mouth and throat; experiment: Sensory activity of ODT-C on volunteers (double-blind, modified ASHRAE scale); type: in vivo, human; conditions: for ODT-C test results (sensation and taste in words) / duration of cooling effect: 1.2 to 1.5 mg per ODT; for ODT-C test results (sensation and taste in words): 4 volunteers; for duration of cooling effect: ODT-C; for ASHRAE equivalent: peak heat abstraction sensation, modified ASHRAE scale neutral [0] to icy cold [-4]
Protocol: ODT-C. More experiments were conducted to find a smaller tablet, in the range of 40 to 60 mg, with a disintegration of <10 sec. These paraemters might achieve a better pharmacological effect. ODT-B was 100 mg in size and disintegrated in <20 sec. […] For example, to 1.5 g of DAPA-2-5 is added 1.5 g of absolute ethanol, followed by 2.0 g of Neusilin US2. The mixture is shaken or mixed in a Speedmixer at 500 rpm for 1 min. The sample is placed under a heat source and about 2 hr later, the sample size is re-weighed with the expectation that the ethanol has been evaporated and the sample now weights 3.5 g. This powder is free-flowing. • b. a sample of maltitol powder is prepared (Maltisorb® P200 from Roquette). • c. a sample of Prosolv® EasyTab is prepared (JRS Pharma, Rosenburg, Germany). • d. a blend of a. [2.80 g], b. [15.73 g] and c. [31.46 g] is prepared to make 1000 ODT tablets, each weighing 50 mg and containing 1.2 mg of DAPA-2-5. • e. the blend is first shaken by hand, then placed for 2 min in a SpeedMixer at 500 rpm. The blend is poured into the funnel of a New Single Punch Tablet Press Pill Making Machine Maker TDP-1-5 [available from Amazon.com] and the extruded tablets are collected.
ODT-C, described in Study 2, were tested for sensory properties on 4 volunteers, with at least 3 trials per compound and at 1.2 to 1.5 mg per ODT. The ODT was placed on the mid-line posterior dorsal surface of the tongue and sensory effects recorded for 30 min on a standardized form […]. The ODT were coded and administered on a double-blind basis. A modified ASHRAE scale of neutral, slightly cool [-1], cool [-2], cold [-3], and icy cold [-4] was used to rank the peak heat abstraction sensations in the mouth and throat. Other perceived effects, e.g. taste and duration, were also noted.

[9] = molecular target: T3, hNav1.7 (sodium channels) (Homo sapiens, UniProt Q15858); experiment: Patch-clamp in transfected cells, hNav1.7; type: cell-based; conditions: DAPA-2-5 at 5 μM; positive control lidocaine
T3 construct: expressed in transfected cells
T3 sequence (Q15858 whole entry): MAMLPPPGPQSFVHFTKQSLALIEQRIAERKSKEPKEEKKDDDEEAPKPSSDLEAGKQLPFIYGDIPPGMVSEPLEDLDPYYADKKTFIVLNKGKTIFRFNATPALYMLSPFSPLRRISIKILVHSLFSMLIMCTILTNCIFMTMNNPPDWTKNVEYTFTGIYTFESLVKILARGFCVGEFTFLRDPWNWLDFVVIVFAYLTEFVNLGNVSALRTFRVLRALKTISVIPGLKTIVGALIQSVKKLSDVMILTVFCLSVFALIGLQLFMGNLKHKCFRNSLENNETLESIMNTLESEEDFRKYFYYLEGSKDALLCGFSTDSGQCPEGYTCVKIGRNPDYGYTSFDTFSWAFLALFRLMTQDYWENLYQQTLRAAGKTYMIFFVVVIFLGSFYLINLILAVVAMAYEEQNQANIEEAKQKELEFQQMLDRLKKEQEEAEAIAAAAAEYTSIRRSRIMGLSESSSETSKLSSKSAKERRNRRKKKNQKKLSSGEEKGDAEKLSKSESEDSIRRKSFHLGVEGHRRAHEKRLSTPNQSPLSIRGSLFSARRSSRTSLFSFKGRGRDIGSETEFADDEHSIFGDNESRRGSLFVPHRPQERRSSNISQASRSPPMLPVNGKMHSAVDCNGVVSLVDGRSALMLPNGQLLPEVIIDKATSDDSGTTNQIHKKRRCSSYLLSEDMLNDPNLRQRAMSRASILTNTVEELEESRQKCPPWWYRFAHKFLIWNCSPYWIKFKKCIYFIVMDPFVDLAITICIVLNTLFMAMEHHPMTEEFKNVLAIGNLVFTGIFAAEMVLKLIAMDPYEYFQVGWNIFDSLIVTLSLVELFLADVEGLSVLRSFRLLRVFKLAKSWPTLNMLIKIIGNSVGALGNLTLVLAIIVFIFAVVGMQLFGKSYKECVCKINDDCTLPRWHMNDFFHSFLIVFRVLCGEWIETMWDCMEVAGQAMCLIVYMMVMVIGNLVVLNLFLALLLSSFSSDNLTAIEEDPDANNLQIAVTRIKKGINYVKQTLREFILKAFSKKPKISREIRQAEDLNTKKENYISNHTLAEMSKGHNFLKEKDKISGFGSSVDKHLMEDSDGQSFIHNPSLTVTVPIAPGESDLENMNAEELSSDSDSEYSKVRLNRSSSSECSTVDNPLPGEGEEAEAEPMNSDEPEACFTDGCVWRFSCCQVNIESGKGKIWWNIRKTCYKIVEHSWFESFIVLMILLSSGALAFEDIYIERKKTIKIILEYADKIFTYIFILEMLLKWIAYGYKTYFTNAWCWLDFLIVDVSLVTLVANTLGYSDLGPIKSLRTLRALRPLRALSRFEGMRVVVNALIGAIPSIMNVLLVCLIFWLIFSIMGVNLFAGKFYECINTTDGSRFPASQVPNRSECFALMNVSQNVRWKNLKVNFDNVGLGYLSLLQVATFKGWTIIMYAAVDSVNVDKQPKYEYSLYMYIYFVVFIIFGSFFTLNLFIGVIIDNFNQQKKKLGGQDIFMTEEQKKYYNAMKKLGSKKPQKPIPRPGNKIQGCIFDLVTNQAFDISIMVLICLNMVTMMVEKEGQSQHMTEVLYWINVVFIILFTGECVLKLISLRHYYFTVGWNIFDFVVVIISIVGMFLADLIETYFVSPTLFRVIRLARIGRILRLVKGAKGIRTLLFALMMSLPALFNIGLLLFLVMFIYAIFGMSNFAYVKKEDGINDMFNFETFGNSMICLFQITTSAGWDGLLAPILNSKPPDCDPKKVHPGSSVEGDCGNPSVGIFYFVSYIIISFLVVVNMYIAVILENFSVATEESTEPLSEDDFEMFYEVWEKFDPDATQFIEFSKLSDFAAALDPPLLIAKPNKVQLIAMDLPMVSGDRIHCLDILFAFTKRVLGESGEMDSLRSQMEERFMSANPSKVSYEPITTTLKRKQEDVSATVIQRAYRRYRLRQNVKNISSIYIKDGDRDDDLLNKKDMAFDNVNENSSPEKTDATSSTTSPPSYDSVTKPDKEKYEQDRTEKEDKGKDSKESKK

T1 sequence (Q7Z2W7 whole entry): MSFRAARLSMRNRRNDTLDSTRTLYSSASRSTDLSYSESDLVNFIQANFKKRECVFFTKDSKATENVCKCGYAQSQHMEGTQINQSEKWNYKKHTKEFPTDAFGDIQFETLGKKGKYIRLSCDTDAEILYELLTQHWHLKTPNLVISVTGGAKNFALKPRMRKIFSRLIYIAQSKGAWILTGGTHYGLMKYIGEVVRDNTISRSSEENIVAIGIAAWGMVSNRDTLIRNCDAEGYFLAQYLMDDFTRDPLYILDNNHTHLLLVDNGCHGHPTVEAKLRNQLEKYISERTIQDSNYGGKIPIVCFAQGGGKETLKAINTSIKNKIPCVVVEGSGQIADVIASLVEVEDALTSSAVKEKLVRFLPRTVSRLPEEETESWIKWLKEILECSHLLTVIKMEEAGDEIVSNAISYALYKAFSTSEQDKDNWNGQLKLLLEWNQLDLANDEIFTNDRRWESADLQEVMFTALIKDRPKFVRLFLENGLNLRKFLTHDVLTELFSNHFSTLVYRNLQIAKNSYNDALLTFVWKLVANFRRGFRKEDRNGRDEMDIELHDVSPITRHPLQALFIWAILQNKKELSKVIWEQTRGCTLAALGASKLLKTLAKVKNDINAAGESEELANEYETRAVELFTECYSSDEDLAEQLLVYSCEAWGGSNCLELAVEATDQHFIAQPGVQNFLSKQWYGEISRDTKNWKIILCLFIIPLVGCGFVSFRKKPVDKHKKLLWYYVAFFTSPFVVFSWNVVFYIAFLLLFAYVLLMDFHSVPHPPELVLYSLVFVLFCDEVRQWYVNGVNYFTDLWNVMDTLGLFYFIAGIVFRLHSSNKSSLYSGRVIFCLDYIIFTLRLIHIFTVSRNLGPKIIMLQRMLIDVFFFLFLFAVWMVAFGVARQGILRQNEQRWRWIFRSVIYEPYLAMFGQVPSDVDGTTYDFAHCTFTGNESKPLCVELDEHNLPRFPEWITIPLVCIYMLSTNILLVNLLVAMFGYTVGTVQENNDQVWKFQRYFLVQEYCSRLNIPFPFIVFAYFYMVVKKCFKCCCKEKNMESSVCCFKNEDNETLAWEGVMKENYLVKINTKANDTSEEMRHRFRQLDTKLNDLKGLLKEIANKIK

Row | Compound | Relative Potency to L-menthol [1] | Cold Discomfort [6] | Duration [5] [min] | Onset [5] [min] | Sensory Quality [5] | Chili test [7] | ODT-C test results (sensation and taste in words) [8] | duration of cooling effect [8] [min] | ASHRAE equivalent [8] | also measured
1 | O=C1NC(c2cccc([N+](=O)[O-])c2)=CCN1c1ccccc1O [icilin, reference compound] |  |  |  |  |  |  |  |  |  | rank in TRPM8 potency among the 21 compounds tested [1]: 4; sensory effects / side-effects in an ODT [2]: did not produce cooling in the chest or the desired sensations on the throat
2 | N=C(N)NC(=O)c1nc(Cl)c(N)nc1N [amiloride, reference compound] |  |  |  |  |  |  |  |  |  | agonist or antagonist activity, ASIC3 [3]: active
3 | CC(C)[C@@H]1CC[C@@H](C)C[C@H]1O [Menthol, L-menthol, reference compound] |  |  |  |  |  |  |  |  |  | rank in TRPM8 potency among the 21 compounds tested [1]: 16; average threshold for cooling on the tongue [4]: 0.25 µg; sensory effects / side-effects in an ODT [2]: produced chest discomfort
4 | CCC(C)P(=O)(CCC(C)C)C(C)CC (stereo not drawn) [DAPA-3-2, 1-Di(sec-butyl) phosphinoyl-3-methyl-butane] | 0.9 | 0 | 2 | 1 | brief cool | 0 |  |  |  | EC50 [1]: 4.2 µM
5 | CCCCCCCCP(=O)(C(C)C)C(C)C [DAPA-1-8, 1-Di(isopropyl)-phosphinoyl-octane] | 5.4 | + | 27 | 1.2 | cool | + | strong unpleasant taste | ~15 | −3 | 
6 | CCN(CC)CC(=O)Nc1c(C)cccc1C [lidocaine, reference compound] |  |  |  |  |  |  |  |  |  | agonist or antagonist activity, hNav1.7 [9]: active
7 | CCCCCP(=O)(CC(C)C)CC(C)C [DAPA-3-1, 1-di(iso-butyl) phosphinoyl-pentane] | 0.2 | 0 | 0 |  | not active | 0 |  |  |  | Onset (min) [5]: not active; EC50 [1]: 24 µM

Now from value to molecule, other results behind:

Row | Relative Potency to L-menthol [1] | Cold Discomfort [6] | Compound | Duration [5] [min] | Onset [5] [min] | Sensory Quality [5] | Chili test [7] | ODT-C test results (sensation and taste in words) [8] | duration of cooling effect [8] [min] | ASHRAE equivalent [8] | also measured
8 | 0.3 | 0 | CCCCP(=O)(C(C)CC)C(C)CC (stereo not drawn) [DAPA-2-4, 1-Di(sec-butyl) phosphinoyl-butane] | 3 | 1 | brief cool | 0 | pleasant cool, but transient effect | < 5 | −2.5 | 
9 | 0.7 | 0 | CCCCCP(=O)(C(C)C)C(C)C [DAPA-1-5, 1-Di(isopropyl)-phosphinoyl-pentane] | 5 | 0.1 | cool | ++ | brief but intense cool | < 5 | −2.7 | 
